Key:
Assay in all cases: KINOMEscan (ScanMAX) kinase profiling
Format in all cases: binding
[1] = biological target: T1, panel of 468 kinases (Homo sapiens, UniProt P30530); conditions: AXL; 1 μM; read-out: % control
T1 construct: purchased KINOMEscan (ScanMAX) service
T1 sequence (P30530 26-894): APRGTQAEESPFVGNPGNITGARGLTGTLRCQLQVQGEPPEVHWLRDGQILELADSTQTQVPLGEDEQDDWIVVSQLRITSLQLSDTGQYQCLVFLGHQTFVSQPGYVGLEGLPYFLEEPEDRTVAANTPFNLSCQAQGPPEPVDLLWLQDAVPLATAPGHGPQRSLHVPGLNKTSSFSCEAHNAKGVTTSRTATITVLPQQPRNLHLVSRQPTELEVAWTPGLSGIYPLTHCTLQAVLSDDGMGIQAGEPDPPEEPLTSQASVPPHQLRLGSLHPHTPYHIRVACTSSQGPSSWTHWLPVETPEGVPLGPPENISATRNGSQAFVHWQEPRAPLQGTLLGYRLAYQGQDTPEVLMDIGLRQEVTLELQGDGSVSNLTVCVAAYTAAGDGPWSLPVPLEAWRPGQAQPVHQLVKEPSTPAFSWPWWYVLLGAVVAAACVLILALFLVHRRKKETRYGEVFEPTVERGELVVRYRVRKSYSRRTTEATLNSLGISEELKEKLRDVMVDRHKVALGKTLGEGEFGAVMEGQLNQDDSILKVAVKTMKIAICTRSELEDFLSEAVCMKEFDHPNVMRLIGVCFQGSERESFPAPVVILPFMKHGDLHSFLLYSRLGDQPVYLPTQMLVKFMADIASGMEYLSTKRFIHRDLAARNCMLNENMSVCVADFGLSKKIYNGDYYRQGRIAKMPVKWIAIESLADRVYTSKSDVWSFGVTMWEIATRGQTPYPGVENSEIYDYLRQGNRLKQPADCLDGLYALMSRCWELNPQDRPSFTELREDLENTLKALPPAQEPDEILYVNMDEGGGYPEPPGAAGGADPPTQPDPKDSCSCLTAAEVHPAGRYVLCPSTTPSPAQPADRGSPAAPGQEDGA

[2] = biological target: T2, panel of 468 kinases (Homo sapiens, UniProt Q04771); conditions: ACVR1; 1 μM; read-out: % control
T2 construct: purchased KINOMEscan (ScanMAX) service
T2 sequence (Q04771 21-509): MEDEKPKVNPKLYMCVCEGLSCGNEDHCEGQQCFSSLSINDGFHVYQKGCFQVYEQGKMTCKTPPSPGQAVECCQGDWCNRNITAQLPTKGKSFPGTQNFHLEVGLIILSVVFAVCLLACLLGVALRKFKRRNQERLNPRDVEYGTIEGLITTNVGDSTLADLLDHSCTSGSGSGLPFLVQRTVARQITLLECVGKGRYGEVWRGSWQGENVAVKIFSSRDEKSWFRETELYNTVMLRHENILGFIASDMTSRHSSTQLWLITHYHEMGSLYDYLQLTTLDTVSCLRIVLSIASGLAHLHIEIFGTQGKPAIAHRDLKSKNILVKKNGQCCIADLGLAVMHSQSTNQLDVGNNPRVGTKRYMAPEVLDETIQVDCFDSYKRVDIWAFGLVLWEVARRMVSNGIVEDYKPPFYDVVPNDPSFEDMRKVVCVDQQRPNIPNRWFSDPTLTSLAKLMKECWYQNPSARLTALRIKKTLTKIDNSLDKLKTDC

[3] = biological target: T3, panel of 468 kinases (Homo sapiens, UniProt Q99640); conditions: PKMYT1; 1 μM; read-out: % control
T3 construct: purchased KINOMEscan (ScanMAX) service
T3 sequence (Q99640 1-499): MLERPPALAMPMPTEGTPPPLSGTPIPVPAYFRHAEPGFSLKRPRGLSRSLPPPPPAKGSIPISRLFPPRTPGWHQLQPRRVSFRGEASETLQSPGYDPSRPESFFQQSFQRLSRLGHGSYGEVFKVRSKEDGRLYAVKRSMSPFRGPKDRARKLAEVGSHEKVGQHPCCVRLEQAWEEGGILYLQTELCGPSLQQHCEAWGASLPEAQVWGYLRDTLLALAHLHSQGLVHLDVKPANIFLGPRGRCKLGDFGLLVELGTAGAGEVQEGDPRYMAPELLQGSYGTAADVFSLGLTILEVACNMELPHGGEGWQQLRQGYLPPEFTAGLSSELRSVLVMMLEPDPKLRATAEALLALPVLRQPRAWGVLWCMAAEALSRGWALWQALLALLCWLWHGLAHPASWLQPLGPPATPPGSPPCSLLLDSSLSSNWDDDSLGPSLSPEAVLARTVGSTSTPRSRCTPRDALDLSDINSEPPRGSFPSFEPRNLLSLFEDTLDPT

Molecule `CNc1nc(Nc2ccc(C(=O)N3CCC(N4CCOCC4)CC3)c3c2OCO3)nc2[nH]cc(Cl)c12` [Compound 75, (7-((5-chloro-4-(methylamino)-7H-pyrrolo[2,3-d]pyrimidin-2-yl)amino)benzo[d][1,3]dioxol-4-yl)(4-morpholinopiperidin-1-yl)methanone] has a remaining binding at 1 µM [1] of 63%, a remaining binding at 1 µM [2] of 100% and a remaining binding at 1 µM [3] of 100%.

`CNc1nc(Nc2ccc(S(=O)(=O)N3CCC(N4CCOCC4)CC3)cc2OC)nc2[nH]cc(Cl)c12` [Compound 12, 5-chloro-N2-(2-methoxy-4-((4-morpholinopiperidin-1-yl)sulfonyl)phenyl)-N4-methyl-7H-pyrrolo[2,3-d]pyrimidine-2,4-diamine] showed a remaining binding at 1 µM [1] of 100%, a remaining binding at 1 µM [2] of 100% and a remaining binding at 1 µM [3] of 100%.

Work on `CNc1nc(Nc2ccc(P3(=O)CCN(C4CCOCC4)CC3)cc2OC)nc2[nH]cc(Cl)c12` [Compound 77, 4-(4-((5-chloro-4-(methylamino)-7H-pyrrolo[2,3-d]pyrimidin-2-yl)amino)-3-methoxyphenyl)-1-(tetrahydro-2H-pyran-4-yl)-1,4-azaphosphinane 4-oxide] yielded a remaining binding at 1 µM [1] of 93%, a remaining binding at 1 µM [2] of 100% and a remaining binding at 1 µM [3] of 100%.
